Key:
[1] = Half life in Sprague-Dawley rat at 2 mg/kg, iv measured upto 24 hrs by LC-MS/MS-AR analysis; assay type: ADME, organism-based; conditions: in vivo
Cytochrome P450 2C9 = Cytochrome P450 2C9 (Homo sapiens, UniProt P11712); experiment: Inhibition of CYP2C9 in human liver microsomes measured after 40 mins incubation by LC-MS/MS analysis; assay type: ADME, Microsome
[2] = Acute toxicity in Kunming mouse assessed as fatality rate at 500 mg/kg, po administered as single dose monitored for 7 days; assay type: organism-based; conditions: in vivo, po, 500 mg/kg, 168 h, time 7 day
[3] = AUC (0 to t) in Sprague-Dawley rat at 2 mg/kg, iv measured upto 24 hrs by LC-MS/MS-AR analysis; assay type: ADME, organism-based; conditions: in vivo
Cytochrome P450 1A2 = biological target: T1, Cytochrome P450 1A2 (Homo sapiens, UniProt P05177); experiment: Inhibition of CYP1A2 in human liver microsomes measured after 40 mins incubation by LC-MS/MS analysis; assay type: ADME, Microsome
T1 sequence (P05177 whole entry): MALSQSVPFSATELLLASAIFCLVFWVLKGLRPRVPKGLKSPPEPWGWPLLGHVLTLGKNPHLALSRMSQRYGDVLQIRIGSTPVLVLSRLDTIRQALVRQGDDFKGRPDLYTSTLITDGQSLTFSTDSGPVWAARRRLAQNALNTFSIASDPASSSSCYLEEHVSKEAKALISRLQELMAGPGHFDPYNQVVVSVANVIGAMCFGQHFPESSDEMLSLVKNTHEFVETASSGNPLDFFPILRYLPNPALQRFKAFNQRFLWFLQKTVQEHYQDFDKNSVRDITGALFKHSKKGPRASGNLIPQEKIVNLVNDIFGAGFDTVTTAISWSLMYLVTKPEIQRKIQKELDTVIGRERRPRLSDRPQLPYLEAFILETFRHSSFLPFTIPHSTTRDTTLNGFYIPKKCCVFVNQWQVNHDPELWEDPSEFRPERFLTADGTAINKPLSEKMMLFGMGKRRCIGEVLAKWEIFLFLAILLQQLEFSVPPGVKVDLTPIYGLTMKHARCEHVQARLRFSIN

Mus musculus [4] = experiment: Reduction in serum uric acid level in acute hyperuricemia state Kunming mouse model assessed as SUA level at 0.25 mg/kg, po (reference value: 1037 +/- 106.59 uM); assay type: functional
[5] = Tmax in Sprague-Dawley rat at 2 mg/kg, po measured upto 24 hrs by LC-MS/MS-AR analysis; assay type: ADME, organism-based; conditions: in vivo
Cytochrome P450 2C19 = Cytochrome P450 2C19 (Homo sapiens, UniProt P33261); experiment: Inhibition of CYP2C19 in human liver microsomes measured after 40 mins incubation by LC-MS/MS analysis; assay type: ADME, Microsome
Mus musculus [6] = experiment: Reduction in serum uric acid level in acute hyperuricemia state Kunming mouse model assessed as SUA level at 0.5 mg/kg, po (reference value: 1037 +/- 106.59 uM); assay type: functional
Rattus norvegicus [7] = experiment: Potency index, ratio of compound to lesinurad for reduction in serum uric acid level in po dosed acute hyperuricemia state Sprague-Dawley rat model assessed as decrease ratio of SUA level; assay type: functional
[8] = AUC (0 to infinity) in Sprague-Dawley rat at 2 mg/kg, po measured upto 24 hrs by LC-MS/MS-AR analysis; assay type: ADME, organism-based; conditions: in vivo
Mus musculus [9] = experiment: Reduction in serum uric acid level in acute hyperuricemia state Kunming mouse model assessed as SUA level by measuring decrease ratio at 0.25 mg/kg, po relative to control; assay type: functional; set-up: scale not given: the % may be the effect or the level left
[10] = Toxicity in Kunming female mouse assessed as balloon like degeneration of liver at 100 mg/kg, po administered every other day for 14 days by H and E staining based assay; assay type: organism-based; conditions: in vivo, 336 h, time 14 day
[11] = Acute toxicity in Kunming mouse assessed as fatality rate at 1000 mg/kg, po administered as single dose monitored for 7 days; assay type: organism-based; conditions: in vivo, po, 1000 mg/kg, 168 h, time 7 day
[12] = AUC (0 to t) in Sprague-Dawley rat at 2 mg/kg, po measured upto 24 hrs by LC-MS/MS-AR analysis; assay type: ADME, organism-based; conditions: in vivo
[13] = Acute toxicity in Kunming mouse assessed as convulsions at 250 to 1000 mg/kg, po administered as single dose monitored for 7 days; assay type: organism-based; conditions: in vivo, 168 h, dose 250-1000 mg/kg, time 7 day
[14] = Oral bioavailability in Sprague-Dawley rat at 2 mg/kg measured upto 24 hrs by LC-MS/MS-AR analysis; assay type: ADME, organism-based; conditions: in vivo
Cytochrome P450 2D6 = Cytochrome P450 2D6 (Homo sapiens, UniProt P10635); experiment: Inhibition of CYP2D6 in human liver microsomes measured after 40 mins incubation by LC-MS/MS analysis; assay type: ADME, Microsome
Mus musculus [15] = species: Mus musculus; experiment: Reduction in serum uric acid level in acute hyperuricemia state Kunming mouse model assessed as SUA level by measuring decrease ratio relative to control; assay type: functional; set-up: concentration or dose not given beside the values
[16] = biological target: Xanthine dehydrogenase/oxidase (Bos taurus, UniProt P80457); experiment: Inhibition of bovine XOD using xanthine as substrate assessed as inhibitory ratio at 10 uM by spectrophotometric analysis relative to control; conditions: cattle
Rattus norvegicus [17] = experiment: Reduction in serum uric acid level in po dosed acute hyperuricemia state Sprague-Dawley rat model assessed as SUA level (reference value: 955.20 +/- 85.56 uM); assay type: functional
[18] = biological target: T2, Solute carrier family 2, facilitated glucose transporter member 9 (Mus musculus, UniProt Q3T9X0); experiment: Inhibition of mouse EGFP-tagged GLUT9 expressed in HEK293T cells assessed as inhibition rate by measuring relative current by patch clamp electrophysiological analysis relative to control; assay type: cell-based
T2 sequence (Q3T9X0 whole entry): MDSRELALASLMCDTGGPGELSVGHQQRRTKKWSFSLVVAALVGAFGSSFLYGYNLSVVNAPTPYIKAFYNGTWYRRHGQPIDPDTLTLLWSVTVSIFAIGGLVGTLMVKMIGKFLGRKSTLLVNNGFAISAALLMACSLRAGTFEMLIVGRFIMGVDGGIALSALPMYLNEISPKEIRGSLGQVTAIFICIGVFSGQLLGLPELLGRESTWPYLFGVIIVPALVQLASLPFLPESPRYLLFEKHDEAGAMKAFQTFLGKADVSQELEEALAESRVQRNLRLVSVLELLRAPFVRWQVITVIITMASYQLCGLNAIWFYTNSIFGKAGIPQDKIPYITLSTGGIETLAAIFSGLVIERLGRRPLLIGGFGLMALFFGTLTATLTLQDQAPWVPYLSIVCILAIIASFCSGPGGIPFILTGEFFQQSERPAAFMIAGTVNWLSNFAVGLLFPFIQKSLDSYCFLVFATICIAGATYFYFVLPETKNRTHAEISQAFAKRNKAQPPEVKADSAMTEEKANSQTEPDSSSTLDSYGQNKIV

[19] = biological target: T3, Solute carrier family 2, facilitated glucose transporter member 9 (Mus musculus) (UniProt Q3T9X0); experiment: Inhibition of mouse EGFP-tagged GLUT9 expressed in HEK293T cells assessed as inhibition rate by measuring relative current at 5 uM by patch clamp electrophysiological analysis relative to control; assay type: cell-based; set-up: scale not given: the % may be the effect or the level left
T3 sequence (whole entry): T2 sequence (Q3T9X0 whole entry)

[20] = Cmax in Sprague-Dawley rat at 2 mg/kg, po measured upto 24 hrs by LC-MS/MS-AR analysis; assay type: ADME, organism-based; conditions: in vivo
[21] = Clearance in Sprague-Dawley rat at 2 mg/kg, iv measured upto 24 hrs by LC-MS/MS-AR analysis; assay type: ADME, organism-based; conditions: in vivo

Chain of Cytochrome P450 2D6 (P10635 whole entry): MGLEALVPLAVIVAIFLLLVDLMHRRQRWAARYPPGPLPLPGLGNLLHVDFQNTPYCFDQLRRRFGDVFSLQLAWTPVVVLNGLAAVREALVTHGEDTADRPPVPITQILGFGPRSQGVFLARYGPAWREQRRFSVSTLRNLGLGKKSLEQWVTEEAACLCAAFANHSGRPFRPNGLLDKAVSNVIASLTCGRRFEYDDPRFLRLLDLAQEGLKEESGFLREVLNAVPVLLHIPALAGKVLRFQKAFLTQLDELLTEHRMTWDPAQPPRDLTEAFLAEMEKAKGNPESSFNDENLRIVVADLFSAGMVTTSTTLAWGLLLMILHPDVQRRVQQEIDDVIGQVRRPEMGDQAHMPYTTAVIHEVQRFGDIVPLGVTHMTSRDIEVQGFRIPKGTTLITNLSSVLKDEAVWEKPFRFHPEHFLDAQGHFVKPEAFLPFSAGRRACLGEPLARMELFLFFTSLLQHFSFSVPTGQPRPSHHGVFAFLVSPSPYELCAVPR
Chain of Xanthine dehydrogenase/oxidase (P80457 whole entry): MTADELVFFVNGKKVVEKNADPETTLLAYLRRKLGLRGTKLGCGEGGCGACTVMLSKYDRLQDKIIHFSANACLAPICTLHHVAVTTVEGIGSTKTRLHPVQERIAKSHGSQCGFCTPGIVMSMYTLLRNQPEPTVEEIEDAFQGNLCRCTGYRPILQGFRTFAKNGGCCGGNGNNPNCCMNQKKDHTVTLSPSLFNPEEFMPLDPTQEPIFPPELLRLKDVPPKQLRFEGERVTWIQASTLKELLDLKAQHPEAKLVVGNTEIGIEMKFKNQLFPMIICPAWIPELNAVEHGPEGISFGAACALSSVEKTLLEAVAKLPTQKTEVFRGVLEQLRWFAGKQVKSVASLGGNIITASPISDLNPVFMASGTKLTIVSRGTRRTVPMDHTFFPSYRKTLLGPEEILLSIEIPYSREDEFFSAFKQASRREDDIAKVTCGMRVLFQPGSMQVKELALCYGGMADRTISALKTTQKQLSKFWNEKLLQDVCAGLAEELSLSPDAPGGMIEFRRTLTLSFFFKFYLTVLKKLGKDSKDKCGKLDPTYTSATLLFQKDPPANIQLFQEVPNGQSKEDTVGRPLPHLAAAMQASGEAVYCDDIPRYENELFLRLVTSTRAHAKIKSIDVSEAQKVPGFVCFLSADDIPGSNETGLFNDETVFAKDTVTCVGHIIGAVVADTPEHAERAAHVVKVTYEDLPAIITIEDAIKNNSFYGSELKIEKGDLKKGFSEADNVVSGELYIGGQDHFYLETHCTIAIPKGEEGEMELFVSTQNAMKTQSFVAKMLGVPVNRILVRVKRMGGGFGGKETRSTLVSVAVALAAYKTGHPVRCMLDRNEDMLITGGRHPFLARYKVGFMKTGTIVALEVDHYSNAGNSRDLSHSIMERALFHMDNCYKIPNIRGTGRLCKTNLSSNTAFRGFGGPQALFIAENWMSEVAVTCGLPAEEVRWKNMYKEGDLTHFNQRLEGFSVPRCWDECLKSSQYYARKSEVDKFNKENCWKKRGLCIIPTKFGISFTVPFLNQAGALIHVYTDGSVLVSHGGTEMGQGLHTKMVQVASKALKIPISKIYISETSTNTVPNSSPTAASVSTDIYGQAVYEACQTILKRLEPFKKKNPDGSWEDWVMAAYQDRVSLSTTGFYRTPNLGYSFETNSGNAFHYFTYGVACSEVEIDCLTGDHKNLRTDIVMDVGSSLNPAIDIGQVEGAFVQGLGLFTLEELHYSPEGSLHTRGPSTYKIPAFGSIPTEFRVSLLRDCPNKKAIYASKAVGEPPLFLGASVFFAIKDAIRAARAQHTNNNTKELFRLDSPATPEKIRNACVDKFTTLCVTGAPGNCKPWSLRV
Chain of Cytochrome P450 2C19 (P33261 whole entry): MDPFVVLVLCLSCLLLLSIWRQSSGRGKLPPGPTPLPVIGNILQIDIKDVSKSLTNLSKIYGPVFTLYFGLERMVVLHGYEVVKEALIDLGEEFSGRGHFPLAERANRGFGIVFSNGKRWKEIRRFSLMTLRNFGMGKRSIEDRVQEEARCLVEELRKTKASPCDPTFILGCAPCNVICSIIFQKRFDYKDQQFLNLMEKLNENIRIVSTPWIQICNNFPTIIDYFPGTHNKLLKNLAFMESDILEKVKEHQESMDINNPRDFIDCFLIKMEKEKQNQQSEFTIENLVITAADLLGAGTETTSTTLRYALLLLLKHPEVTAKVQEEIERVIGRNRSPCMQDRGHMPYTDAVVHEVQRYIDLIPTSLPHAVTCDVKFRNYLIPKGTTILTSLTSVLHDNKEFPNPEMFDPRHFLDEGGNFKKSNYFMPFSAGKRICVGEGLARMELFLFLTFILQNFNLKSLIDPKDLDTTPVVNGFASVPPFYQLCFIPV
Chain of Cytochrome P450 2C9 (P11712 whole entry): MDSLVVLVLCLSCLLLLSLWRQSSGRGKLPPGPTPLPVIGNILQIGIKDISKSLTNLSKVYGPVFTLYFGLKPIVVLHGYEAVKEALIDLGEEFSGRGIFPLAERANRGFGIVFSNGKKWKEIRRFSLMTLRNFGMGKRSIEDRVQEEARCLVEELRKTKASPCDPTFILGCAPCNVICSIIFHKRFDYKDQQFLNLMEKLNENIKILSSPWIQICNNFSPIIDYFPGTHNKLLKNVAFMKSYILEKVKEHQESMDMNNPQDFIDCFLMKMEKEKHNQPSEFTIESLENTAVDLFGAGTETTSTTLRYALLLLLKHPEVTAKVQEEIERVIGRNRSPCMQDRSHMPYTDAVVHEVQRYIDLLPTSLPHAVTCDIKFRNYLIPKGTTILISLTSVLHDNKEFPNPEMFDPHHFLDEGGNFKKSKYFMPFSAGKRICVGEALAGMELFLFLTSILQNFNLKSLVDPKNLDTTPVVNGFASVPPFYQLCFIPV

Question: With `O=C(O)CCCSc1nc(Nc2ccc(C3CC3)c3ccccc23)c2sccc2n1` as the compound, how does the half-life [1] read?
Answer: Its half-life is 96 min.

Question: What about the IC50 (Cytochrome P450 2C9) of the same compound?
Answer: Its IC50 is 2 µM.

Question: And the Activity [2]?
Answer: The Activity was “Non-Toxic”.

Question: And the AUC(0-t) at 24 h [3]?
Answer: The AUC(0-t) at 24 h was 1900 ng·h/mL.

Question: What about the IC50 (Cytochrome P450 1A2) of the same compound?
Answer: The IC50 was 9.48 µM.

Question: What about the Activity (Mus musculus [4]) of the same compound?
Answer: The Activity was 945 µM.

Question: And the Tmax [5]?
Answer: The Tmax was 15 min.

Question: What about the IC50 (Cytochrome P450 2C19) of the same compound?
Answer: Its IC50 is 5.93 µM.

Question: What about the Activity (Mus musculus [6]) of the same compound?
Answer: The Activity was 418.6 µM.

Question: What about the Ratio (Rattus norvegicus [7]) of the same compound?
Answer: The Ratio was 1.8.

Question: What about the AUC [8] of the same compound?
Answer: Its AUC is 1929.1 ng·h/mL.

Question: And the Activity (Mus musculus [9])?
Answer: The Activity was 9.89%.

Question: And the Activity [10]?
Answer: The Activity was “Non-Toxic”.

Question: What about the Activity [11] of the same compound?
Answer: The Activity was “Non-Toxic”.

Question: What about the AUC(0-t) at 24 h [12] of the same compound?
Answer: Its AUC(0-t) at 24 h is 1810 ng·h/mL.

Question: And the Activity [13]?
Answer: Its Activity is “Non-Toxic”.

Question: What about the F [14] of the same compound?
Answer: The F was 20.1%.

Question: What about the IC50 (Cytochrome P450 2D6) of the same compound?
Answer: The IC50 was > 20 µM.

Question: And the Activity (Mus musculus [15])?
Answer: Its Activity is 93.2%.

Question: And the inhibition at 10 µM [16]?
Answer: The inhibition at 10 µM was 11.7%.

Question: What about the Activity (Rattus norvegicus [17]) of the same compound?
Answer: Its Activity is 190.8 µM.

Question: What about the IC50 [18] of the same compound?
Answer: The IC50 was 18.2 µM.

Question: What about the Activity [19] of the same compound?
Answer: Its Activity is 69.7%.

Question: And the Cmax [20]?
Answer: Its Cmax is 1270 ng/mL.

Question: What about the clearance [21] of the same compound?
Answer: Its clearance is 17 mL/min/kg.

— ChEMBL document CHEMBL5528083, “Discovery of a Novel Thienopyrimidine Compound as a Urate Transporter 1 and Glucose Transporter 9 Dual Inhibitor with Improved Efficacy and Favorable Druggability” (J Med Chem, 2024)
